Results from BindingDB's records for doi:10.1016/j.bmcl.2010.11.084 (Merck Frosst Centre For Therapeutic Research, 2011).

experiment: Antagonist activity at CRTH2 in human eosinophil assessed as effect of cellular shape change by EOS assay

IC50 [nM]	SMILES
2.4	CN(C(=O)C1(c2ccc(F)cc2)CC1(C)C)[C@@H]1CCc2c(CC(=O)O)c3cccnc3n2C1 (stereo partly drawn) [2-((8R)-8-(1-(4-fluorophenyl)-N,2,2-trimethylcyclopropanecarboxamido)-6,7,8,9-tetrahydropyrido[3,2-b]indolizin-5-yl)acetic acid]
1.2	C[C@@H](C(=O)N(C)[C@@H]1CCc2c(CC(=O)O)c3cccnc3n2C1)c1ccc(F)cc1 [2-((R)-8-((R)-2-(4-fluorophenyl)-N-methylpropanamido)-6,7,8,9-tetrahydropyrido[3,2-b]indolizin-5-yl)acetic acid]
1.2	CN(C(=O)C1(c2ccc(F)cc2)CCC1)[C@@H]1CCc2c(CC(=O)O)c3cccnc3n2C1 [(R)-2-(8-(1-(4-fluorophenyl)-N-methylcyclobutanecarboxamido)-6,7,8,9-tetrahydropyrido[3,2-b]indolizin-5-yl)acetic acid]
3.4	CN(C(=O)C1(c2ccc(F)cc2)CCCC1)[C@@H]1CCc2c(CC(=O)O)c3cccnc3n2C1 [(R)-2-(8-(1-(4-fluorophenyl)-N-methylcyclopentanecarboxamido)-6,7,8,9-tetrahydropyrido[3,2-b]indolizin-5-yl)acetic acid]
3.1	CN(C(=O)C1(c2ccc(F)cc2)CC1)[C@@H]1CCc2c(CC(=O)O)c3cccnc3n2C1 [(R)-2-(8-(1-(4-fluorophenyl)-N-methylcyclopropanecarboxamido)-6,7,8,9-tetrahydropyrido[3,2-b]indolizin-5-yl)acetic acid]
2.3	CN(C(=O)C(C)(C)c1ccc(F)cc1)[C@@H]1CCc2c(CC(=O)O)c3cccnc3n2C1 [(R)-2-(8-(2-(4-fluorophenyl)-N,2-dimethylpropanamido)-6,7,8,9-tetrahydropyrido[3,2-b]indolizin-5-yl)acetic acid]
16	CN([C@@H]1CCc2c(CC(=O)O)c3ccc(-c4ccc(F)cc4)nc3n2C1)S(=O)(=O)c1ccc(F)cc1 [(R)-2-(8-(4-fluoro-N-methylphenylsulfonamido)-2-(4-fluorophenyl)-6,7,8,9-tetrahydropyrido[3,2-b]indolizin-5-yl)acetic acid]
7	CN([C@@H]1CCc2c(CC(=O)O)c3cccnc3n2C1)S(=O)(=O)c1ccc(F)cc1 [(R)-2-(8-(4-fluoro-N-methylphenylsulfonamido)-6,7,8,9-tetrahydropyrido[3,2-b]indolizin-5-yl)acetic acid]
